According to PMC10877564, “Activity of Gut-Derived Nisin-like Lantibiotics against Human Gut Pathogens and Commensals” (ACS Chemical Biology, 2024):
Positions of bridges follow the written chain, without caps; N, C: chain ends. Non-standard residues stand in square brackets, D forms with d. No end group written: not given here. Abu = CC[C@H](N)C(=O)O; Dhb = C/C=C(\N)C(=O)O; Dha = C=C(N)C(=O)O

How the values were obtained:
Assay in all cases: MIC assay, anaerobic broth dilution
[1] = test system: F. fissicatena MSK.9.3; type: cell-based, Faecalicatena fissicatena; details: BHIS, 37 °C, 48 h, 3-fold serial dilution
Excerpt: (§1) Antibiotic treatment may result in collateral damage to commensal bacteria in the human microbiome, leading to dysbiosis and susceptibility to various diseases.[44] How lantibiotics impact Gram-positive commensals from the human gut has remained unclear. Therefore, we performed antimicrobial activity tests of these lantibiotics against selected Gram-positive human gut commensals, most of which belong to the Lachnospiraceae family, one of the most abundant bacterial families in the human gut.[27] In general, human gut commensals were more susceptible to the set of investigated lantibiotics compared to pathogens (Figure 3).
(§2) Elution Buffer (4 M guanidine hydrochloride, 20 mM Tris HCl, pH 7.5 at 25 °C, 100 mM NaCl, 1 M imidazole). Peptides eluted from the Ni resin were concentrated and desalted using 3 kDa Amicon filters (Millipore). For leader peptide removal, the peptide (1:20 trypsin to peptide) was incubated with the trypsin protease in 50 mM Tris-HCl, pH 8 overnight at 37 °C. Lastly, the core peptides were further purified with HPLC using an Agilent 1200 instrument (Agilent) as specified […]
(§3) in general methods. […]
Isolation of human gut commensal bacteria […]
(§4) All MIC assays were performed under anaerobic condition. […] Lantibiotics were dissolved in DPBS, and concentrations were determined by BCA assay (Pierce) according to the manufacturer’s protocol. […]

[2] = test system: S. aureus USA300 (MRSA); type: cell-based, Staphylococcus aureus; details: BHIS, 37 °C, 48 h, 3-fold serial dilution
Excerpt: (§5) Next, we set out to test the antimicrobial activities of these purified lantibiotics against a panel of Gram-positive bacteria that are representatives of some of the most prevalent human pathogens: VRE, Methicillin-resistant S. aureus USA300 (MRSA), Methicillin-resistant Staphylococcus epidermidis SK135 (MRSE), Listeria monocytogenes 10403S, and Clostridioides difficile VPI10463. We examined the growth of bacteria in a 96-well plate under a concentration gradient of lantibiotics under anaerobic conditions (Figure S2B).
as §2, §3
(§6) For broth cultures, isolates were grown in pre-reduced BHI supplemented with 5 g/L yeast extract (Difco, BD) and 0.1% L-cysteine under anaerobic condition. […]
as §4

[3] = test system: C. difficile VPI10463; type: cell-based, Clostridioides difficile; details: BHIS, 37 °C, 48 h, 3-fold serial dilution
Excerpt: as §5, §2, §3, §6, §4

[4] = test system: S. epidermidis SK135 (MRSE); type: cell-based, Staphylococcus epidermidis; details: BHIS, 37 °C, 48 h, 3-fold serial dilution
Excerpt: as §5, with “S2B). […]” for “S2B).”
(§7) For broth cultures, isolates were grown in pre-reduced BHI supplemented with 5 g/L yeast extract (Difco, BD) and 0.1% L-cysteine under anaerobic condition.
(§8) Minimal Inhibition Concentration (MIC) assay
(§9) All MIC assays were performed under anaerobic condition. Stationary bacterial culture in BHIS (BHI supplemented with 5 g/L yeast extract and 0.1% L-cysteine) were inoculated 1:100 to wells containing 200 µL BHIS in U-bottom 96-well plates. Lantibiotics were dissolved in DPBS, and concentrations were determined by BCA assay (Pierce) according to the manufacturer’s protocol.
Lantibiotic stock solutions were added to wells to reach desired final concentration, with 3-fold serial dilution across rows to create concentration gradients. Bacteria-inoculated wells without lantibiotics served as control. […]

[5] = test system: C. comes MSK.11.23; type: cell-based, Coprococcus comes
Excerpt: as §1, with “3). […]” for “3).”
Isolation of human gut commensal bacteria
Isolation and growth of commensal bacteria was done as previously reported.5 Briefly, fresh donor fecal samples were transferred into an anaerobic chamber (Coy Labs) within 1 h of collection. The anaerobic chamber was maintained using a gas mix consisting of 5% hydrogen, 5% carbon dioxide and 90% nitrogen, and hydrogen was maintained at ~3.0% using an anaerobic gas infuser. Fecal samples were resuspended in pre-reduced PBS and plated on Columbia blood agar or brain-heart infusion (BHI – Difco, BD) agar plates in three serial 10-fold dilutions and incubated at 37 °C for 48 – 96 h. Isolated colonies were re-streaked for purity onto Columbia blood agar and frozen in pre-reduced 10% glycerol in PBS.
as §7, §8, §9
Lantibiotic stock solutions were added to wells to reach desired final concentration, with 3-fold serial dilution across rows to create concentration gradients. Bacteria-inoculated wells without lantibiotics served as control. Plates were incubated at 37 °C for 48 h before being taken out of the anaerobic chamber for centrifugation. Plates were imaged with an iBright 1500 imager […]
pellets than those without lantibiotics were identified as MIC.

[6] = test system: Coprococcus eutactus MSK.18.32; type: cell-based; details: Coprococcus eutactus MSK.18.32; anaerobic, BHIS, 37 °C, 48 h, 3-fold serial dilution
Excerpt: as §1
as §2, with “specified in general methods. About 1.5 mg recombinant peptide was obtained after HPLC purification per” for “specified”
as §4

Substance: nisin A (I[Dhb]AI[Dha]LC[Abu]PGCK[Abu]GALMGCNMK[Abu]A[Abu]CHCSIHV[Dha]K; thioether 8-11, 13-19, 23-26, 25-28, 3-7; UniProt P13068 24-57, looked up) [prototypical class I lantibiotic produced by L. lactis, food preservative; commercial nisin A]
- nisin A MIC [1]: 0.0329 µM
- nisin A MIC [2]: 2.67 µM
- nisin A MIC [3]: 2.67 µM
- nisin A MIC [4]: 2.67 µM
- nisin A MIC ([5]; C. comes MSK.11.23, anaerobic, BHIS, 37 °C, 48 h, 3-fold serial dilution): 0.296 µM
- sensitivity of C. comes MSK.11.23 to the lantibiotic (in words) ([5]; Figure 3, anaerobic MIC assay): relatively resistant
- nisin A MIC [6]: 0.0110 µM
